Test results as given in BindingDB's records for doi:10.1016/j.bioorg.2015.04.006 (Ataturk University, 2015).

What follows are molecules tested against Acetylcholinesterase (Homo sapiens, UniProt P22303) (assay: Acetylcholinesterase Inhibition Assay). Conditions: pH 8.
Experimental: AChI and 5,5'-dithio-bis(2-nitro-benzoic)acid (DTNB) were used as substrate for this enzymatic reaction. […] Then 50 µL of DTNB (0.5 mM) was transferred. Then the reaction was initiated by the addition of 50 µL of AChI. The hydrolysis of AChI was recorded spectrophotometrically by the formation of yellow 5-thio-2-nitrobenzoate anion as the result of the reaction of DTNB with thiocholine at a wavelength of 412 nm.

Acetylcholinesterase, sequence (P22303 whole entry): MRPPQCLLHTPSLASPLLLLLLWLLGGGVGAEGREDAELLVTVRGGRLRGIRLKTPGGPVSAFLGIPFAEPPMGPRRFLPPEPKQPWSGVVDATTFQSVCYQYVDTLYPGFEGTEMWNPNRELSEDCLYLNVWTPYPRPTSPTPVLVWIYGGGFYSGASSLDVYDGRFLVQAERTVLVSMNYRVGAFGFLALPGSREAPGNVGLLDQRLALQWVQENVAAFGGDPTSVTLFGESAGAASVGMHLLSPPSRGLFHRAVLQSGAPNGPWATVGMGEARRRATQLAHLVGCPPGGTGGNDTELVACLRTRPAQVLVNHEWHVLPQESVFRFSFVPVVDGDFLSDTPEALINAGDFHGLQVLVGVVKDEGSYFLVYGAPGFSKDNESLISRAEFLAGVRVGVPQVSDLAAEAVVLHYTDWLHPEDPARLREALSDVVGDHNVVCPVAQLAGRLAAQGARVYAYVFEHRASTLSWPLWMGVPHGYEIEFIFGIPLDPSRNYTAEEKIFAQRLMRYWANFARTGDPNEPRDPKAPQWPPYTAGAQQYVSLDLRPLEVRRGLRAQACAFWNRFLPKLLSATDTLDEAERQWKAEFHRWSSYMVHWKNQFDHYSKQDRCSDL

Going from COc1ccc(OC)c(Br)c1 [2-bromo-1,4-dimethoxybenzene (14)] to COc1ccc(C(=O)c2ccc(OC)c(OC)c2)c(Br)c1 [(2-bromo-4-methoxyphenyl)(3,4-dimethoxyphenyl)methanone (10)], the IC50 falls from 7.21 nM to 4.41 nM (1.6-fold).

COc1ccc(C(=O)c2ccc(OC)cc2OC)cc1 [(2,4-dimethoxyphenyl)(4-methoxyphenyl)methanone (18)] and COc1ccc(C(=O)c2cc(OC)c(Br)cc2OC)cc1 [(4-Bromo-2,5-dimethoxyphenyl)(4-methoxyphenyl)methanone (15)] are within 1.5-fold of each other in IC50: 5.25 nM for the first, 4.22 nM for the second.

O=C(c1ccc(O)cc1Br)c1cccc(O)c1O [(2-Bromo-4-hydroxyphenyl)(2,3-dihydroxyphenyl)methanone (21)] and O=C(c1ccc(O)c(O)c1)c1ccc(O)cc1Br [(2-bromo-4-hydroxyphenyl)(3,4-dihydroxyphenyl)methanone (20)] are within 1.5-fold of each other in IC50: 4.84 nM for the first, 4.71 nM for the second.

COc1ccc(C(=O)c2cccc(OC)c2OC)c(Br)c1 [(2-Bromo-4-methoxyphenyl)(2,3-dimethoxyphenyl)methanone (11)] and COc1ccc(C(=O)c2cc(Br)c(OC)cc2OC)cc1 [(5-bromo-2,4-dimethoxyphenyl)(4-methoxyphenyl)methanone (19)] are within 1.5-fold of each other in IC50: 4.2 nM for the first, 4.05 nM for the second.

O=C(c1ccc(O)cc1)c1cc(O)c(Br)cc1O [(4-Bromo-2,5-dihydroxyphenyl)(4-hydroxyphenyl)methanone (22)] and O=C(c1ccc(O)cc1)c1cc(Br)c(O)cc1O [(5-Bromo-2,4-dihydroxyphenyl)(4-hydroxyphenyl)methanone (24)] are within 1.5-fold of each other in IC50: 4.58 nM for the first, 4.81 nM for the second.

O=C(c1ccccc1)c1cc(O)c(Br)cc1O [(4-Bromo-2,5-dihydroxyphenyl)(phenyl)methanone (23)] and COc1cc(C(=O)c2ccccc2)c(OC)cc1Br [(4-Bromo-2,5-dimethoxyphenyl)(phenyl)methanone (16)] are within 1.5-fold of each other in IC50: 4.88 nM for the first, 4.68 nM for the second.

COc1ccc(OC)c(Br)c1 [2-bromo-1,4-dimethoxybenzene (14)] and COc1ccc(C(=O)c2ccc(OC)c(OC)c2)c(Br)c1 [(2-bromo-4-methoxyphenyl)(3,4-dimethoxyphenyl)methanone (10)] are within 1.5-fold of each other in Ki: 4.25 nM for the first, 3.53 nM for the second.

Going from COc1ccc(C(=O)c2ccc(OC)cc2OC)cc1 [(2,4-dimethoxyphenyl)(4-methoxyphenyl)methanone (18)] to COc1ccc(C(=O)c2cc(OC)c(Br)cc2OC)cc1 [(4-Bromo-2,5-dimethoxyphenyl)(4-methoxyphenyl)methanone (15)], the Ki falls from 5.88 nM to 3.77 nM (1.6-fold). The second binds more tightly here.

O=C(c1ccc(O)cc1Br)c1cccc(O)c1O [(2-Bromo-4-hydroxyphenyl)(2,3-dihydroxyphenyl)methanone (21)] and O=C(c1ccc(O)c(O)c1)c1ccc(O)cc1Br [(2-bromo-4-hydroxyphenyl)(3,4-dihydroxyphenyl)methanone (20)] are within 1.5-fold of each other in Ki: 3.75 nM for the first, 4.06 nM for the second.

COc1ccc(C(=O)c2cccc(OC)c2OC)c(Br)c1 [(2-Bromo-4-methoxyphenyl)(2,3-dimethoxyphenyl)methanone (11)] and COc1ccc(C(=O)c2cc(Br)c(OC)cc2OC)cc1 [(5-bromo-2,4-dimethoxyphenyl)(4-methoxyphenyl)methanone (19)] are within 1.5-fold of each other in Ki: 4.34 nM for the first, 3.65 nM for the second.

Compared with O=C(c1ccc(O)cc1)c1cc(O)c(Br)cc1O [(4-Bromo-2,5-dihydroxyphenyl)(4-hydroxyphenyl)methanone (22)], O=C(c1ccc(O)cc1)c1cc(Br)c(O)cc1O [(5-Bromo-2,4-dihydroxyphenyl)(4-hydroxyphenyl)methanone (24)] is 2.1-fold higher in Ki: 2.78 nM for the first, 5.72 nM for the second. The first binds more tightly here.

First: O=C(c1ccccc1)c1cc(O)c(Br)cc1O [(4-Bromo-2,5-dihydroxyphenyl)(phenyl)methanone (23)]
Second: COc1cc(C(=O)c2ccccc2)c(OC)cc1Br [(4-Bromo-2,5-dimethoxyphenyl)(phenyl)methanone (16)]
The Ki of the first is 1.6-fold lower: 3.24 nM for the first, 5.28 nM for the second.
